Data taken from US20150258059A1, “ANTIMICROBIAL AND RADIOPROTECTIVE COMPOUNDS” (BioDiem, Ltd, priority 2001, published 2015).
Values after ≈ are worked out from the molar mass of the structure shown. Where two headings read alike, the source gives them in different places. Marks after values point to notes of the source that are not given here.

How the values were obtained:
Escherichia coli B-683 = experiment: Sensitivity of strains: suppression of growth; type: cell-based; conditions: Compound (1) 1.0%; antibiotics disc method
[1] = test system: Citrobacter diversus B-678; experiment: Sensitivity of strains: suppression of growth; type: cell-based; conditions: Compound (1) 1.0%; antibiotics disc method
Bacillus sp. B-575 = experiment: Sensitivity of strains: suppression of growth; type: cell-based; conditions: Compound (1) 1.0%; antibiotics disc method; further: key: + sensitive strains; + moderately sensitive strains; − stable strains
[2] = test system: γ-hemolytic streptococcus B-672; experiment: Sensitivity of strains: suppression of growth; type: cell-based; conditions: Compound (1) 1.0%; antibiotics disc method
[3] = test system: β-hemolytic streptococcus B-624; experiment: Sensitivity of strains: suppression of growth; type: cell-based; conditions: Compound (1) 1.0%; antibiotics disc method
Candida albicans B-45 = experiment: Sensitivity of pathogenic fungi; type: cell-based; conditions: Inoculation 5 × 10^4
Pseudomonas = experiment: Agar plug diffusion, zone of retardation; type: cell-based, Pseudonomas aeruginosa; conditions: plug impregnated at 0.5%
[4] = test system: S. aureus-clinical isolate 1; experiment: microbe, parasite or virus in culture; type: cell-based
Text: (§1) NCCLS-USA Standard Method—Broth microdilution (or macrodilution) (Mueller-Hinton).
(§2) Inoculum 1-4×10^4 cfu (or −4×10^5 cfu). Ciprofloxacin test control. Chlorhexidine values added for disinfectant and antiseptic activity comparison.

[5] = test system: S. aureus-clinical isolate 2; experiment: microbe, parasite or virus in culture; type: cell-based
Text: as §1, §2

[6] = test system: Streptococcus pneumonia ATCC49619; experiment: NCCLS broth microdilution MIC/MBC; type: cell-based; conditions: Table 9, 35° C., 24 hours
[7] = test system: Corynebacterium xerosis RMIT; experiment: NCCLS broth microdilution MIC/MBC; type: cell-based; conditions: for MIC: Corynebacterium xerosis
Haemophilus influenzae = experiment: NCCLS broth microdilution MIC/MBC; type: cell-based
Trichophyton rubrum = experiment: NCCLS broth macro-dilution MIC/MFC (RPMI); type: cell-based; conditions: Table 10, 7 day, 30° C.
Epidermophyton floccosum = experiment: NCCLS broth macro-dilution MIC/MFC (RPMI); type: cell-based; conditions: Table 10, 7 day, 30° C.
Aspergillus fumigatus = experiment: NCCLS broth macro-dilution MIC/MFC (RPMI); type: cell-based; conditions: Table 10, 7 day, 30° C.
S. aureus = experiment: Antibacterial activity in the presence of blood, macrodilution; type: cell-based
[8] = test system: C. guillermondii RMIT 176; experiment: M38-P microdilution MIC/MFC; type: cell-based; conditions: Table 16, 24 h, 35° C.
C. krusei RMIT 177 = experiment: M38-P microdilution MIC/MFC; type: cell-based; conditions: 35° C.
Cryptococcus neoformans = experiment: M38-P microdilution MIC/MFC; type: cell-based; conditions: Cryptococcus neoformans, Table 16, 24 h, 35° C., read-out: MIC
Pseudoallescheria boydii = experiment: M38-P microdilution MIC/MFC; type: cell-based; conditions: Table 16, Dematiaceous fungi
[9] = test system: Staphylococci epidermidis B-513; experiment: Agar diffusion assay
[10] = test system: Salmonella typhimurium M-727; experiment: Agar diffusion assay
Acinetobacter B-681 = experiment: Agar diffusion assay
Bacillus subtilis = experiment: Rate of kill, viable counts; conditions: in 2 h
Klebsiella oxytoca = experiment: Rate of kill, viable counts
[11] = test system: Acinetobacter calcoaceticus; experiment: Rate of kill, viable counts; conditions: in 6 h
[12] = test system: Staphylococcus aureus strain 674; experiment: Impregnated agar serial double dilutions; conditions: meat peptone agar
Enterococcus faecalis = experiment: Agar plug diffusion, zone of retardation; conditions: plug impregnated at 0.5%
Klebsiella pneumoniae = experiment: Agar plug diffusion, zone of retardation; conditions: plug impregnated at 0.5%
C. hyointestinalis 54/4 = experiment: MIC/MMC against clinical strains of Campylobacter spp.; conditions: Table 18; clinical strain isolated from humans
[13] = Table 19, 24 H, 35° C., O2-MICRO METHOD

Which “Suppression of Growth (+/−)” value (Escherichia coli B-683) does the source give for C/C(=C\c1ccc2c(c1)OCO2)[N+](=O)[O-] [Compound (1)] here?
The value was “+”.

What about the “Suppression of Growth (+/−)” value [1] of the same molecule?
Its value is “+”.

And the “Suppression of Growth (+/−)” value (Bacillus sp. B-575)?
Its value is “+”.

And the “Suppression of Growth (+/−)” value [2]?
The value was “+”.

And the “Suppression of Growth (+/−)” value [3]?
The value was “+”.

And the “Number of microbes: Growth” value (Candida albicans B-45; 0.1%)?
The value was 0.

What about the “Number of microbes: Retardation” value (Candida albicans B-45; 0.1%) of the same molecule?
Its value is 5 × 10^6.

What about the “Number of microbes: Growth” value (Candida albicans B-45; 0.5%) of the same molecule?
The value was 0.

What about the “Number of microbes: Retardation” value (Candida albicans B-45; 0.5%) of the same molecule?
Its value is 5 × 10^6.

What about the “Number of microbes: Growth” value (Candida albicans B-45; 2.0%) of the same molecule?
Its value is 0.

And the “Number of microbes: Retardation” value (Candida albicans B-45; 2.0%)?
The value was 5 × 10^4.

What about the “Size of zone of retardation of the growth” value (shortened to “Size”) (Pseudomonas) of the same molecule?
The value was 0.

And the MIC ([4]; Staphylococcus aureus, 24 h)?
The MIC was 16 µg/mL (≈ 77.2 µM).

What about the MMC ([4]; Table 9, 35° C., 24 hours) of the same molecule?
Its MMC is 16 µg/mL.

And the MMC ([4]; Table 17, 2 or 3 replicates)?
The MMC was 16 µg/mL.

What about the MIC ([5]; Staphylococcus aureus, 24 h) of the same molecule?
Its MIC is 16 µg/mL (≈ 77.2 µM).

What about the MMC ([5]; Table 9, 35° C., 24 hours) of the same molecule?
The MMC was 16 µg/mL.

What about the MMC ([5]; Table 17, 2 or 3 replicates) of the same molecule?
The MMC was 16 µg/mL.

And the MIC ([6]; Streptococcus pneumoniae, ATCC49619)?
The MIC was 16 µg/mL (≈ 77.2 µM).

And the MMC [6]?
The MMC was 32 µg/mL.

And the MIC ([7]; Table 9, 35° C., 24 hours)?
The MIC was 32.2 µg/mL (≈ 155 µM).

What about the MIC ([7]; Table 17, 2 or 3 replicates) of the same molecule?
Its MIC is 32 µg/mL (≈ 154 µM).

What about the MMC ([7]; Table 9, 35° C., 24 hours) of the same molecule?
Its MMC is 32.16 µg/mL.

What about the MMC ([7]; Table 17, 2 or 3 replicates) of the same molecule?
Its MMC is 32 µg/mL.

What about the MIC (Haemophilus influenzae; Haemophilus influenzae, Table 9, 35° C., 24 hours, read-out: MIC) of the same molecule?
The MIC was 0.125 µg/mL (≈ 0.603 µM).

What about the MIC (Haemophilus influenzae; Haemophilus influenzae, Table 17, 2 or 3 replicates, read-out: MIC) of the same molecule?
Its MIC is 0.125 µg/mL (≈ 0.603 µM).

And the MMC (Haemophilus influenzae; Table 9, 35° C., 24 hours)?
The MMC was 0.125 µg/mL.

What about the MMC (Haemophilus influenzae; Table 17, 2 or 3 replicates) of the same molecule?
The MMC was 0.125 µg/mL.

And the MIC (Haemophilus influenzae; [13])?
Its MIC is 0.125 µg/mL (≈ 0.603 µM).

And the MMC (Haemophilus influenzae; [13])?
Its MMC is 0.125 µg/mL.

What about the MMC (Trichophyton rubrum) of the same molecule?
Its MMC is 256 µg/mL.

And the MIC (Trichophyton rubrum; Trichophyton rubrum, 168 h)?
Its MIC is 1 µg/mL (≈ 4.83 µM).

What about the MIC (Epidermophyton floccosum; Epidermophyton floccosum, 168 h) of the same molecule?
The MIC was 0.5 µg/mL (≈ 2.41 µM).

What about the MMC (Epidermophyton floccosum) of the same molecule?
Its MMC is 16 µg/mL.

And the MIC (Aspergillus fumigatus; Aspergillus fumigatus, 168 h)?
Its MIC is 8 µg/mL (≈ 38.6 µM).

What about the MMC (Aspergillus fumigatus) of the same molecule?
Its MMC is 32 µg/mL.

And the MIC (S. aureus; 5% blood)?
The MIC was 16 µg/mL.

What about the MMC (S. aureus; 5% blood) of the same molecule?
The MMC was 256 µg/mL.

What about the MIC (S. aureus; 10% plasma) of the same molecule?
The MIC was 16 µg/mL.

What about the MMC (S. aureus; 10% plasma) of the same molecule?
Its MMC is 256 µg/mL.

What about the MIC (S. aureus; Staphylococcus aureus) of the same molecule?
Its MIC is 16 µg/mL.

And the MMC [8]?
The MMC was 2 µg/mL.

And the MIC ([8]; read-out: MIC)?
Its MIC is 2 µg/mL (≈ 9.65 µM).

What about the MIC (C. krusei RMIT 177; Pichia kudriavzevii, RMIT177, Table 16, 24 h, read-out: MIC) of the same molecule?
Its MIC is 4 µg/mL (≈ 19.3 µM).

And the MMC (C. krusei RMIT 177; Table 16, 24 h)?
Its MMC is 4 µg/mL.

What about the MIC (Cryptococcus neoformans) of the same molecule?
The MIC was 1 µg/mL (≈ 4.83 µM).

And the MMC (Pseudoallescheria boydii)?
The MMC was 4 µg/mL.

What about the MIC (Pseudoallescheria boydii; read-out: MIC) of the same molecule?
The MIC was 2 µg/mL (≈ 9.65 µM).

What about the “pH (in 50% v./v. ethanol)” value of the same molecule?
The value was “approximately neutral”.

And the “Diameter of zone of Growth inhibition” value ([9]; Concentration in disc 0.1%)?
The value was 32# mm.

And the “Diameter of zone of Growth inhibition” value ([9]; Concentration in disc 1.0%)?
The value was 34# mm.

And the “Diameter of zone of Growth inhibition” value ([9]; Concentration in disc 2.0%)?
Its value is 38# mm.

And the “Diameter of zone of Growth inhibition” value ([10]; Concentration in disc 0.1%)?
The value was 24# mm.

What about the “Diameter of zone of Growth inhibition” value ([10]; Concentration in disc 1.0%) of the same molecule?
The value was 30# mm.

What about the “Diameter of zone of Growth inhibition” value ([10]; Concentration in disc 2.0%) of the same molecule?
Its value is 32# mm.

What about the “Diameter of zone of Growth inhibition” value (Acinetobacter B-681; Concentration in disc 0.1%) of the same molecule?
Its value is 32# mm.

What about the “Diameter of zone of Growth inhibition” value (Acinetobacter B-681; Concentration in disc 1.0%) of the same molecule?
Its value is 35# mm.

What about the “Diameter of zone of Growth inhibition” value (Acinetobacter B-681; Concentration in disc 2.0%) of the same molecule?
The value was 38# mm.

And the “Log reduction in viable count” value (Bacillus subtilis; 256 μg/mL)?
The value was 3.8 in 2 h.

And the “Log reduction in viable count” value (Bacillus subtilis; 512 μg/mL)?
The value was 4 in 2 h.

What about the “Log reduction in viable count” value (Klebsiella oxytoca; 256 μg/mL) of the same molecule?
Its value is 0.

What about the “Log reduction in viable count” value (Klebsiella oxytoca; 512 μg/mL) of the same molecule?
Its value is 0.

And the “Log reduction in viable count” value ([11]; 256 μg/mL)?
The value was 1 in 6 h.

And the “Log reduction in viable count” value ([11]; 512 μg/mL)?
Its value is 1 in 6 h.

And the “Minimal % Compound (1) giving complete inhibition of test culture” value [12]?
Its value is 0.015%.

And the “Size” value (Enterococcus faecalis)?
Its value is 6.

What about the “Size” value (Klebsiella pneumoniae) of the same molecule?
Its value is 5.

And the MMC (C. hyointestinalis 54/4)?
The MMC was 2.
